One series concerns Panc-1 cells. In words: Cell proliferation assay (XTT) in Panc-1 cells. The format is cell-based. How it is done:
(§1) Cell proliferation studies were conducted with Panc-1 and AsPC-1 cells. The cells were seeded into 96-well plates at 80,000 cells per well and allowed to attach/grow for 48 h before drug solutions were added. The culture medium (DMEM +10% fetal bovine serum or RPMI-1640 +10% fetal bovine serum) was removed and the cells were gently washed once with sterile pH 6.0 uptake buffer. Floxuridine, 5′-L-phenylalanyl-L-tyrosyl-floxuridine, gemcitabine and 5′-L-phenylalanyl-L-tyrosyl-gemcitabine were 2-fold serially diluted in pH 6.0 uptake buffer from 5 to 0.078 mmol/L. Buffer alone was used as a 100% viability control. The wash buffer was removed and 30 µL drug solution per well was added and incubated at 37 °C for 2 h in the cell incubator. After this time, the drug solutions were removed and the cells were again gently washed twice with sterile uptake buffer. The culture medium was then added to each well after washing. The cells were allowed to recover for 24 h before evaluating cell viability via 2,3-bis[2-methoxy-4-nitro-5-sulfophenyl]-2H-tetrazolium-5-carboxanilide inner salt (XTT) assays. A mixture (30 µL) containing XTT (1 mg/mL) in sterile RPMI-1640 without phenol red and phenazine methosulfate (N-methyldibenzopyrazine methyl sulfate in sterile PBS, 0.383 mg/mL) reagents were added to the cells and incubated at 37 °C for 1 h, after which the absorbance at 450 nm was read. The concentrations required to inhibit cell growth by 50% (GI50) were calculated using GraphPad Prism version 3.0 by nonlinear data fitting.

The nature of series [1]: Drug concentration and species in mouse plasma after in situ perfusion. The format is in vivo. Particulars: for first metabolite (5-FU or cytosine) in plasma / parent drug, share of totally observed amount in plasma: mouse plasma after in situ perfusion; for prodrug form, share of totally observed amount in plasma: mouse plasma at 2 h following in situ perfusion; for parent drug, share of totally observed amount in plasma: parent drug perfused. How it is done: All animal experiments were conducted using protocols approved by the University of Michigan Committee of Use and Care of Animals (UCUCA). Female BALB/c mice (Charles River, IN, USA) weighing 20–25 g were used for all perfusion studies. Prior to each experiment, mice were fasted overnight with free access to water.
At the start of the study, the test compound (100 µM) in perfusion buffer (pH 6.0) including phenol red was perfused through the intestinal segment (Watson-Marlow Pump 323S, Watson-Marlow Bredel Inc., Wilimington, MA, USA), at the flow rate of 0.1 mL/min. The perfusion buffer was perfused for 30 min to assure steady-state and samples were taken in every 10 min for 90 min. At the end of perfusion, blood samples were collected by cardiac puncture. Blood samples with heparin were centrifuged at 1,000 × g for 10 min at 4 °C to collect plasma samples for LC-MS analysis. Following the termination of the experiment, the length of each perfused intestinal segment was measured.
The LC-MS analytical method of 5′-mono amino acid ester prodrugs of floxuridine has been reported previously. The LC-MS analysis of dipeptide monoester prodrugs of floxuridine and gemcitabine along with their parent drugs was modified and performed in a similar manner. Briefly, LC-MS analysis of the uptake drug amount was performed in triplicate on LCMS-2010EV (Shimadzu Scientific Instruments, Kyoto, Japan) equipped with an ESI (electrospray ionization) source. The Shimadzu LC-MS system consisting of Shimadzu LC-20AD pumps with DGU-20A in-line vacuum degasser units, and SIL-20A HT autosampler with an InertSustain C-18, 2.1 × 50 mm, 3 µm particle size, (GL Sciences, Torrance, CA, USA) was used for the separation and the effluent from the column was introduced directly to the ionization source. The system was controlled by Shimadzu LCMS solution software (version 3) to collect and process data. All samples were run with Solvent A and Solvent B with Solvent B gradient changing from 0%–90% at a rate of 13.8%/min over a 22 min run. The mobile phase consisted of 0.1% TFA/water (Solvent A) and 0.1% TFA/acetonitrile (Solvent B) for gemcitabine, gemcitabine prodrug and floxuridine prodrug. The mobile phase consisted of 0.1% ammonium hydroxide/water (Solvent A) and 0.1% ammonium hydroxide /acetonitrile (Solvent B) for floxuridine. The ESI probe was operated with a detector voltage of 1.5 kV, CDL temperature of 250 °C, heat block of 200 °C, and nebulizing gas flow of […] in positive mode for gemcitabine prodrugs and their metabolites. The drying gas was N2 delivered at 0.1 MPa.

The next series has as its system AsPC-1 cells. In words: Cell proliferation assay (XTT) in AsPC-1 cells. Type of series: cell-based. The following applies: 24 h recovery. The protocol:
as §1

Series [2] can be described thus: Enzymatic stability in Panc-1 cell homogenates. Type of series: in vitro ADME. Particulars: human, Panc-1 cell homogenates, pH 7.4; 500 µg/mL protein, 37 °C; read-out: Panc-1 cell homogenates t1/2. The protocol: Confluent Caco-2, Panc-1, and AsPC-1cells were rinsed twice with phosphate buffered saline (PBS). The cells were lysed with phosphate buffer (pH 7.4) by ultrasonication (Micro ultrasonic cell disrupter Model KT40, Kontes, Vineland, NJ, USA), and pelleted by centrifugation for 5 min at 1,000 × g. Protein amount was quantified with the Bio-Rad (Hercules, CA, USA) DC Protein Assay using bovine serum albumin as a standard. The amount of protein was adjusted to 500 µg/mL and hydrolysis reactions were carried out in 96-well plates (Corning). Caco-2, Panc-1, and AsPC-1 cell suspensions (250 µL) were placed in triplicate wells, the reactions were started with the addition of substrate, and cells were incubated at 37 °C for 120 min. At the desired time point, sample aliquots (35 µL) were removed and added to acetonitrile (ACN, 150 µL) with 0.1% TFA. The mixtures were filtered with a 0.45 µm filters at 1,000 × g for 10 min at 4 °C. The filtrate was then analyzed via reverse-phase HPLC.
The stability samples of prodrugs and their metabolites, and perfusion samples were determined on an Agilent HPLC system (Agilent Technologies, Santa Clara, CA, USA). The HPLC system consisted of Agilent pumps (1100 series), an Agilent autosampler (1200 series), and an Agilent UV-Vis detector (1100 series) controlled by Chemstation® 32 software (version B.01.03). Samples were resolved in an Agilent Eclipse Plus C18 reverse-phase column (3.5 µm, 4.6 × 75 mm) equipped with a guard column. The mobile phase consisted of 0.1% TFA/water (Solvent A) and 0.1% TFA/acetonitrile (Solvent B) with the solvent B gradient changing from 0%–56% at a rate of […] during a 15 min run for gemcitabine and gemcitabine prodrugs. Standard curves generated for each prodrug and their parent drug were utilized for quantitation of integrated area under peaks. The detection wavelength was 254 nm and spectra were acquired in the 220–380 nm wavelength range. The detection wavelength for phenol red was 430 nm.
The experiments concerning drug and their prodrug stability were performed at 37 °C in 0.01 N HCl, SIF (pH 6.0), and pH 7.4 phosphate buffer. […] Prodrug metabolites such as floxuridine, 5-fluorouracil (5-FU), gemcitabine, 2′-deoxy-2′,2′-difluorouridine, uracil, and cytosine were monitored along with prodrug disappearance in this experiment.

Setting [3] is: Homo sapiens, PANC-1, 2 h exposure, 24 h recovery, XTT.
Setting [4] is: Homo sapiens, ASPC1, 2 h exposure.

By GI50 is commonly meant the concentration at which growth is held to half of that of the control. With `NC(Cc1ccccc1)C(=O)NC(Cc1ccc(O)cc1)C(=O)OCC1OC(n2cc(F)c(=O)[nH]c2=O)CC1O` [5′-L-Phenylalanyl-L-tyrosyl-floxuridine], the values for the GI50 in the series with Panc-1 cells (setting [3]) and in the series with AsPC-1 cells (setting [4]) were 3 ± 0.3 mM and 4.2 ± 0.1 mM, respectively. In addition, the “drug concentration in mouse plasma, rank among tested compounds” value in series [1] (after in situ perfusion) is on record as “highest drug concentration”. Moreover, in series [1], the “first metabolite (5-FU or cytosine) in plasma” value is given as “not observed”. Also, in series [1], the “prodrug form, share of totally observed amount in plasma” value came out at 81%. Further, the half-life in series [2] amounted to 40.4 ± 0.2 min.
In the case of “2′,2′-difluoro-2′-deoxyuridine [Gemcitabine]”, the GI50 in the series on Panc-1 cells (tested 5 to 0.078 mmol/L) is greater than 5 mM; in the series with AsPC-1 cells (2 h exposure) it was 10.2 ± 1.6 mM. Besides, the “parent drug, share of totally observed amount in plasma” value in series [1] came to 83%.
In the series with Panc-1 cells (Homo sapiens, PANC-1, tested 5 to 0.078 mmol/L), `O=c1[nH]c(=O)n([C@H]2C[C@H](O)[C@@H](CO)O2)cc1F` [Floxuridine, 5-fluoro-2′-deoxyuridine] came in with a GI50 greater than 5 mM. In addition, the “parent drug, share of totally observed amount in plasma” value in series [1] was “only drug observed”. For the same molecule, in series [2], the half-life was 41.7 ± 6.8 min.
`Nc1ccn(C2OC(COC(=O)C(Cc3ccc(O)cc3)NC(=O)C(N)Cc3ccccc3)C(O)C2(F)F)c(=O)n1` [5′-L-Phenylalanyl-L-tyrosyl-gemcitabine]: the figures for the GI50 with Panc-1 cells (setting [3]) and in the series with AsPC-1 cells (setting [4]) were 3.2 ± 0.7 mM and 5 ± 0.3 mM, respectively. Also, the “first metabolite (5-FU or cytosine) in plasma” value in series [1] is on record as “one-third”. Also, the “prodrug form, share of totally observed amount in plasma” value in series [1] is 40%. In addition, in series [2], the half-life turned out to be 30.2 ± 1.1 min.

(Values after publication PMC3942691, “The Dipeptide Monoester Prodrugs of Floxuridine and Gemcitabine—Feasibility of Orally Administrable Nucleoside Analogs” (Pharmaceuticals, 2014).)
